For three molecules, zone of inhibition, Activity and Ratio results are on record in ChEMBL document CHEMBL3045015, “Synthesis and physiological evaluation of new N-nitroso-2,6-dicarbethoxy-3,5-diaryltetrahydro-1,4-thiazine-1,1-dioxides” (Med Chem Res, 2012).

The subject of series [1] is Escherichia coli. Nature of the series: Antibacterial activity against Escherichia coli MTCC 722 at 10 ug/ml by disk diffusion method. It is filed as functional. The following applies: read-out: IZ. For orientation: Agar diffusion results depend on both activity and mobility in agar.
The test system of series [2] is Pseudomonas aeruginosa. Put plainly: Antibacterial activity against Pseudomonas aeruginosa […] at 10 ug/ml by disk diffusion method. In kind it is functional. Particulars: read-out: IZ.
For series [3], the system named is Candida albicans. Nature of the series: Antifungal activity against Candida albicans MTCC 227 at 10 ug/ml by disk diffusion method. It is filed as functional. Particulars: read-out: IZ.
A further series relates to Mus musculus. Put plainly: Acute toxicity in Mus musculus (mouse) at 300 mg/kg. It is filed as organism-based. Set-up: dose 300 mg/kg. Particulars: in vivo.
Series [4] concerns Streptococcus pyogenes. Put plainly: Ratio of compound IZ to amikacin IZ for Streptococcus pyogenes MTCC 389 at 10 ug/ml by disk diffusion method. In kind it is functional.
Series [5] relates to Streptococcus pyogenes. Nature of the series: Antibacterial activity against Streptococcus pyogenes MTCC 389 at 10 ug/ml by disk diffusion method. It is filed as functional. Particulars: read-out: IZ.
In series [6] the test system is Staphylococcus aureus. Put plainly: Antibacterial activity against Staphylococcus aureus MTCC 96 at 10 ug/ml by disk diffusion method. It is filed as functional. Particulars: read-out: IZ.
Series [7] deals with Staphylococcus aureus. Put plainly: Ratio of compound IZ to amikacin IZ for Staphylococcus aureus MTCC 96 at 10 ug/ml by disk diffusion method. It is filed as functional.
In series [8] the test system is Candida albicans. Put plainly: Ratio of compound IZ to nystatin IZ for Candida albicans MTCC 227 at 10 ug/ml by disk diffusion method. In kind it is functional.
The test system of series [9] is Pseudomonas aeruginosa. Put plainly: Ratio of compound IZ to amikacin IZ for Pseudomonas aeruginosa […] at 10 ug/ml by disk diffusion method. It is filed as functional.
Series [10] deals with Escherichia coli. Put plainly: Ratio of compound IZ to amikacin IZ for Escherichia coli MTCC 722 at 10 ug/ml by disk diffusion method. In kind it is functional.

Molecules are shown by their SMILES.

`CCOC(=O)C1C(c2ccc(C)cc2)N(N=O)C(c2ccc(C)cc2)C(C(=O)OCC)S1(=O)=O` (stereo not drawn): the zone of inhibition at 10 µg/mL with Escherichia coli [1] amounted to 17 mm; in the series on Pseudomonas aeruginosa [2], 9 mm; in the series on Candida albicans [3] it was 11 mm; in the series with Streptococcus pyogenes [5], 17 mm; in the series on Staphylococcus aureus [6], 11 mm. Moreover, in the series on Mus musculus, the Activity entry is listed as “Non-toxic”. For the same molecule, the Ratio is 0.85 with Streptococcus pyogenes [4]; 0.61 in the series on Staphylococcus aureus [7]; 0.58 in the series with Candida albicans [8]; 0.53 with Pseudomonas aeruginosa [9]; 1 in the series on Escherichia coli [10].

On to `CCOC(=O)C1C(c2ccccn2)N(N=O)C(c2ccccn2)C(C(=O)OCC)S1(=O)=O` (stereo not drawn), for which the zone of inhibition at 10 µg/mL in the series on Escherichia coli [1] amounted to 10 mm; in the series on Pseudomonas aeruginosa [2] it was 9 mm; in the series on Candida albicans [3] it was 12 mm; with Streptococcus pyogenes [5] it was 11 mm; in the series on Staphylococcus aureus [6] it was 13 mm. The Activity result in the series on Mus musculus is given as “Non-toxic”. Also, the Ratio in the series on Streptococcus pyogenes [4] was determined as 0.55; with Staphylococcus aureus [7], 0.72; with Candida albicans [8] it was 0.63; in the series with Pseudomonas aeruginosa [9], 0.53; with Escherichia coli [10], 0.59.

Turning to `CCOC(=O)C1C(c2c[nH]c3ccccc23)N(N=O)C(c2c[nH]c3ccccc23)C(C(=O)OCC)S1(=O)=O` (stereo not drawn), the zone of inhibition at 10 µg/mL was found to be 12 mm in the series with Escherichia coli [1]; 11 mm in the series with Pseudomonas aeruginosa [2]; 15 mm with Candida albicans [3]; 9 mm with Streptococcus pyogenes [5]; 8 mm with Staphylococcus aureus [6]. In the series on Mus musculus, the Activity result was “Non-toxic”. For the same molecule, the Ratio in the series with Streptococcus pyogenes [4] was 0.45; with Staphylococcus aureus [7], 0.44; in the series on Candida albicans [8], 0.79; in the series on Pseudomonas aeruginosa [9], 0.65; in the series on Escherichia coli [10] it was 0.71.
